{"source": "ChEMBL document CHEMBL5380794", "about": "“Discovery of a Potent and Selective STAT5 PROTAC Degrader with Strong Antitumor Activity In Vivo in Acute Myeloid Leukemia” (J Med Chem, 2023)", "key": {"[1]": {"biological_target": "T1, Signal transducer and activator of transcription 5A (Homo sapiens, UniProt P42229)", "T1 sequence (P42229 whole entry)": "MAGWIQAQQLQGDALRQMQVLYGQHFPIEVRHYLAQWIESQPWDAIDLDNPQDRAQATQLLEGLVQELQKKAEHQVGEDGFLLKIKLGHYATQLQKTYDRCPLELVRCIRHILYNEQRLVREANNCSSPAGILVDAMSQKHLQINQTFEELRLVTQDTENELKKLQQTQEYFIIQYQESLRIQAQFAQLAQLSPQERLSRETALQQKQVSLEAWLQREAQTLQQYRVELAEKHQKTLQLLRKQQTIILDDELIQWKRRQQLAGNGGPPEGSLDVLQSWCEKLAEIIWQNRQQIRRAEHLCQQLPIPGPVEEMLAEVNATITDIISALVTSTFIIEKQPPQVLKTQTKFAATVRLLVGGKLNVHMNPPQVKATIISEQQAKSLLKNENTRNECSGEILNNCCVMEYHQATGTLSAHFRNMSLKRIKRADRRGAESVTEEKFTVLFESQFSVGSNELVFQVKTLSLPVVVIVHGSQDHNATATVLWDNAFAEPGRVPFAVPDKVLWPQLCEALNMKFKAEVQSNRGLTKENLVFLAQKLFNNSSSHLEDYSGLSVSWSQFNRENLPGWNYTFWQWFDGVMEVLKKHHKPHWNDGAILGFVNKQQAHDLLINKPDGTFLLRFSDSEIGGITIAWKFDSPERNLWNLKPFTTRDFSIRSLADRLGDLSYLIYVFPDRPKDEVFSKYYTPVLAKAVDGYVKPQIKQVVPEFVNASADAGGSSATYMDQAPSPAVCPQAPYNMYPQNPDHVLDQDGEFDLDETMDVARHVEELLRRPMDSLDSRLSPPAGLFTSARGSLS", "experiment": "Induction of STAT5 degradation in human SKNO-1 cells measured for 18 hrs by Western blot analysis", "assay_type": "cell-based"}, "[2]": {"experiment": "Antiproliferative activity against human Kasumi-3 cells assessed as maximal cell growth inhibition measured for 4 days by celltiter-glo assay relative to control", "assay_type": "functional", "conditions": "time 4 day"}, "[3]": {"experiment": "Antiproliferative activity against human BDCM cells assessed as cell growth inhibition measured for 4 days by celltiter-glo assay", "conditions": "96 h"}, "[4]": {"experiment": "Toxicity in SCID mouse assessed as body weight loss at 50 to 200 mg/kg, ip administered 5 days a week for 3 weeks", "assay_type": "organism-based", "conditions": "in vivo, 504 h, dose 50-200 mg/kg"}, "STAT5A/STAT5B [5]": {"biological_target": "T2, STAT5A/STAT5B (Homo sapiens, UniProt P42229+P51692)", "T2 sequence (P42229 whole entry)": "T1 sequence (P42229 whole entry)", "T2 sequence (P51692 whole entry)": "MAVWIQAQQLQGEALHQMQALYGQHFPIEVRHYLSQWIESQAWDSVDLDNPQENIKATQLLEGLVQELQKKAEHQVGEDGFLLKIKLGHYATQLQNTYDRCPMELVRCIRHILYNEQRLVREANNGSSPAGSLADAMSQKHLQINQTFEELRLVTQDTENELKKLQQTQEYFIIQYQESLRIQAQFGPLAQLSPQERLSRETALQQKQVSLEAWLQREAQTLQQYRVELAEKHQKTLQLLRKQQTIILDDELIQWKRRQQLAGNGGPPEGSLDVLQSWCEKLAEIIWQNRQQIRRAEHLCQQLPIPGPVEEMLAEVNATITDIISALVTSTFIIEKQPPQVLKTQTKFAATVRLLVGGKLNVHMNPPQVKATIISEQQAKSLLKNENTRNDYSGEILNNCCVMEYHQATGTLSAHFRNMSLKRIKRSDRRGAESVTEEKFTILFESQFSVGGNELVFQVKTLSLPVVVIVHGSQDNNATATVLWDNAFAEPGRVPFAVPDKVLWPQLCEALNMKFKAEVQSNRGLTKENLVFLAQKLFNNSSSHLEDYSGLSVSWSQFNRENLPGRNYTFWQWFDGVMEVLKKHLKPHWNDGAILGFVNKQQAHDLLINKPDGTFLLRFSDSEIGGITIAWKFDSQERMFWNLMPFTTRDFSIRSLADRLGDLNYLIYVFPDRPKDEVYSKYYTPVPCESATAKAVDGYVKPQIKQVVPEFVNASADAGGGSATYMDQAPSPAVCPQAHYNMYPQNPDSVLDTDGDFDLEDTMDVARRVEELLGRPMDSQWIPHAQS", "experiment": "Induction of STAT5A/5B degradation in human SKNO-1 cells measured for 18 hrs by immunoblotting analysis", "assay_type": "cell-based"}, "[6]": {"experiment": "Apparent volume of distribution in SCID mouse at 150 mg/kg, ip", "assay_type": "ADME, organism-based", "conditions": "in vivo"}, "STAT5A/STAT5B [7]": {"biological_target": "T2, STAT5A/STAT5B", "experiment": "Induction of STAT5A/5B degradation in human Kasumi-3 cells measured for 18 hrs by immunoblotting analysis", "assay_type": "cell-based"}, "Mus musculus": {"system": "Mus musculus", "experiment": "In vivo induction of degradation of STAT5 in human MV4-11 cells xenografted in SCID mouse assessed as reduction in STAT5 phosphorylation at Y694 residue at 150 mg/kg, ip measured at 1 hrs by immunoblotting analysis", "assay_type": "functional, organism-based"}, "[8]": {"experiment": "Antiproliferative activity against human Kasumi-3 cells assessed as cell growth inhibition measured for 4 days by celltiter-glo assay", "conditions": "Kasumi-3, 96 h"}, "[9]": {"experiment": "Antiproliferative activity against human BDCM cells assessed as maximal cell growth inhibition measured for 4 days by celltiter-glo assay relative to control", "assay_type": "functional", "conditions": "time 4 day"}, "STAT5A/STAT5B [10]": {"biological_target": "T2, STAT5A/STAT5B", "experiment": "Induction of STAT5A/5B degradation in human OCI-AML2 cells measured for 18 hrs by immunoblotting analysis", "assay_type": "cell-based"}, "MV4-11 [11]": {"system": "MV4-11", "experiment": "Effect on STAT3 level in human MV4-11 cells upto 5 uM measured for 18 hrs by Western blot analysis", "assay_type": "functional, cell-based"}, "SKNO-1": {"system": "SKNO-1", "experiment": "Effect on STAT3 level in human SKNO-1 cells upto 5 uM measured for 18 hrs by Western blot analysis", "assay_type": "functional, cell-based"}, "[12]": {"experiment": "In vivo induction of degradation of STAT5 in human MV4-11 cells xenografted in SCID mouse assessed as reduction in STAT5 levels at 150 mg/kg, ip measured at 24 hrs by immunoblotting analysis", "assay_type": "functional", "design": "scale not given: the % may be the effect or the level left"}, "[13]": {"biological_target": "T1, Signal transducer and activator of transcription 5A", "experiment": "Induction of STAT5 degradation in human SKNO-1 cells assessed as reduction in phosphorylated STAT5 level measured for 18 hrs by immunoblotting analysis", "assay_type": "cell-based"}, "STAT5A/STAT5B [14]": {"biological_target": "T2, STAT5A/STAT5B", "experiment": "Induction of STAT5A/5B degradation in human OCI-M2 cells measured for 18 hrs by immunoblotting analysis", "assay_type": "cell-based"}, "[15]": {"experiment": "In vivo induction of degradation of STAT5 in human MV4-11 cells xenografted in SCID mouse assessed as reduction in STAT5 phosphorylation at Y694 residue at 150 mg/kg, ip measured at 1 to 24 hrs by immunoblotting analysis", "assay_type": "functional", "design": "scale not given: the % may be the effect or the level left", "conditions": "time 1-24 hrs"}, "MV4-11 [16]": {"system": "MV4-11", "experiment": "Effect on STAT1 level in human MV4-11 cells upto 5 uM measured for 18 hrs by Western blot analysis", "assay_type": "functional, cell-based"}, "STAT5A/STAT5B [17]": {"biological_target": "T2, STAT5A/STAT5B", "experiment": "Induction of STAT5A/5B degradation in human RS4-11 cells measured for 18 hrs by immunoblotting analysis", "assay_type": "cell-based"}, "[18]": {"experiment": "Antiproliferative activity against human SKNO-1 cells assessed as cell growth inhibition measured for 4 days by celltiter-glo assay", "conditions": "SKNO-1, 96 h"}, "MOLM-13": {"system": "MOLM-13", "experiment": "Antiproliferative activity against human MOLM-13 cells assessed as maximal cell growth inhibition measured for 4 days by celltiter-glo assay relative to control", "assay_type": "functional", "conditions": "time 4 day"}, "STAT5A/STAT5B [19]": {"biological_target": "T2, STAT5A/STAT5B", "experiment": "Induction of STAT5A/5B degradation in human BDCM cells measured for 18 hrs by immunoblotting analysis", "assay_type": "cell-based"}}, "note": "The source made the active and inactive calls. No cut-off for these calls is given here.", "data": [{"smiles": "CN(CCCC#Cc1cccc2c1CN(C1CCC(=O)NC1=O)C2=O)C(=O)CCN(C(=O)[C@@H]1CCCN1C(=O)[C@@H](NC(=O)c1cc2cc(C(F)(F)P(=O)(O)O)ccc2s1)C(C)(C)C)c1ccc(-c2nccs2)cc1", "note": "(some centres not stated)", "values": [{"measurement": "DC50", "setting": "[1]", "result": 0.1, "unit": "µM"}, {"measurement": "Imax", "setting": "[2]", "result": 72, "unit": "%"}, {"measurement": "IC50", "setting": "[3]", "result": "> 15", "unit": "µM"}, {"measurement": "Activity", "setting": "[4]", "result": "Non-Toxic"}, {"measurement": "DC50", "setting": "STAT5A/STAT5B [5]", "result": 0.08, "unit": "µM"}, {"measurement": "Vz", "setting": "[6]", "result": 2.1, "unit": "L/kg"}, {"measurement": "DC50", "setting": "STAT5A/STAT5B [7]", "result": 0.18, "unit": "µM"}, {"measurement": "Activity", "setting": "Mus musculus", "result": "Active"}, {"measurement": "IC50", "setting": "[8]", "result": 0.35, "unit": "µM"}, {"measurement": "Imax", "setting": "[9]", "result": "<5", "unit": "%"}, {"measurement": "DC50", "setting": "STAT5A/STAT5B [10]", "result": 0.28, "unit": "µM"}, {"measurement": "Activity", "setting": "MV4-11 [11]", "result": "inactive"}, {"measurement": "Activity", "setting": "SKNO-1", "result": "inactive"}, {"measurement": "Activity", "setting": "[12]", "result": ">70", "unit": "%"}, {"measurement": "DC50", "setting": "[13]", "result": 0.07, "unit": "µM"}, {"measurement": "DC50", "setting": "STAT5A/STAT5B [14]", "result": 0.7, "unit": "µM"}, {"measurement": "Activity", "setting": "[15]", "result": ">95", "unit": "%"}, {"measurement": "Activity", "setting": "MV4-11 [16]", "result": "inactive"}, {"measurement": "DC50", "setting": "STAT5A/STAT5B [17]", "result": 0.07, "unit": "µM"}, {"measurement": "IC50", "setting": "[18]", "result": 0.36, "unit": "µM"}, {"measurement": "Imax", "setting": "MOLM-13", "result": "<5", "unit": "%"}, {"measurement": "DC50", "setting": "STAT5A/STAT5B [19]", "result": 0.41, "unit": "µM"}]}]}
